Assay results as given in article PMC7395068, “The evolution of strategies to minimise the risk of human drug-induced liver injury (DILI) in drug discovery and development” (Archives of Toxicology, 2020).
Read-outs that look alike come from different tables or passages of the source.

Legend:
[1] = Plasma free fraction (fu) and unbound Cmax (Cmax,u); format: in vitro ADME, human; conditions: unbound plasma Cmax
Description: The prediction of DILI severity was evaluated further using the 3D combined HCI assays using plasma-free fraction. The majority of fu values were obtained from literature, when unavailable in-house prediction was utilised. Unbound plasma Cmax concentrations (Cmax,u) were derived by multiplying total plasma Cmax with the corresponding free fraction (fu) for each compound.

[2] = plasma free fraction; cited from earlier work
[3] = tested on: HepG2 cells, primary human hepatocytes; conditions: In vitro Assay; ref Garside 2014; cited from earlier work
[4] = cited from earlier work
HepG2 cells [5] = conditions: cited from earlier work
[6] = tested on: THLE-Null and THLE-3A4 cells; conditions: In vitro Assay; ref Gustafsson 2014; cited from earlier work
rBsep = conditions: In vitro Assay; ref Dawson 2012; cited from earlier work
HepaRG spheroids = assay: Combined HCI (HCS) and cellular ATP 3D assay in HepaRG spheroids
[7] = read-out: Human plasma Cmax; total plasma Cmax.tot, median of 9 literature references; cited from earlier work
HepG2 cells [8] = conditions: cited from earlier work; remark: listed apart in the source
[9] = cited from earlier work; remark: listed apart in the source
Upcyte human hepatocytes = conditions: In vitro Assay; ref Tolosa 2019; cited from earlier work
[10] = tested on: THLE or HepG2 cells, isolated mitochondria, BSEP; conditions: cited from earlier work
hLiMTs = assay: Combined HCI (HCS) and cellular ATP 3D assay in hLiMTs
[11] = Microtissue model structural based (HCI), combined HCS and ATP, MEC < 25 × Cmax.tot cut-off
[12] = Modeled in vitro assays (cytotoxicity, mitochondrial dysfunction, BSEP), ref Aleo et al. 2019

C[N+](C)(C)CC(=O)O [betaine, reference compound]
Human plasma Cmax,u [1]: 717.446 µM | fu [2]: 0.760 | Cluster 1-6 +VE Assay [3]: -VE | DILI severity category (Chen et al. [2016]) ([4]; LTKB DILIrank category, ref Chen et al. 2016): No | DILI severity category (Chen 2016) ([4]; human DILI classification, LTKB DILIrank, ref Chen et al. 2016): No | DILI severity category ([4]; human DILI severity, ref Chen et al.): No | DILI +VE (5-8), DILI -VE (-4) ([4]; ref Chen 2016): -VE | DILI severity category ([4]; ref Chen 2016): vNo-DILI-Concern | Structural based (HCI) (HepG2 cells [5]; In vitro Assay, ref Tolosa 2012): -VE | DILI in vitro assay prediction, Tolosa (2012) (HepG2 cells [5]; Structural based (HCI), HepG2, ref Tolosa et al. 2012): -VE | THLE-Null [6]: -VE | THLE-Null/3A4 [6]: -VE | Inhibition of rBsep cutoff<1& cmax u>.2 (rBsep): -VE | Inhibition of rBsep cutoff<3 (rBsep): -VE | HepaRG <25x Avg Cmax ATP (HepaRG spheroids; HepaRG, ATP endpoint, cut-off <25x Avg Cmax): -ve | HepaRG <100x Avg Cmaxu ATP (HepaRG spheroids; HepaRG, ATP endpoint, cut-off <100x Avg Cmaxu): -ve | HepaRG <25x Avg Cmax HCS (HepaRG spheroids; HepaRG, HCS endpoints, cut-off <25x Avg Cmax): -ve | HepaRG <100x Avg Cmaxu HCS (HepaRG spheroids; HepaRG, HCS endpoints, cut-off <100x Avg Cmaxu): -ve | HepaRG <25x Avg Cmax All (HepaRG spheroids; HepaRG, all endpoints (ATP and HCS), cut-off <25x Avg Cmax): -ve | HepaRG Cmax max All (HepaRG spheroids; HepaRG, all endpoints, Cmax max used): -ve | HepaRG Cmax min All (HepaRG spheroids; HepaRG, all endpoints, Cmax min used): -ve | HepaRG <10 uM All (HepaRG spheroids; HepaRG, all endpoints, cut-off <10 uM): -ve | HepaRG <100x Avg Cmaxu All (HepaRG spheroids; HepaRG, all endpoints, cut-off <100x Avg Cmaxu): -ve | DILI prediction HepaRG spheroids (HCS-MEC) (HepaRG spheroids; [11]): -VE | Cmax [7]: 944 µM | Structural based (HCI) (HepG2 cells [8]; In vitro Assay, ref O'Brien 2006): +VE | DILI in vitro assay prediction, O'Brien (2006) (HepG2 cells [8]; Structural based (HCI), HepG2, ref O'Brien et al. 2006): +VE (lowest HCI endpoint IC50 (or in the absence of dose–response < 100 µM) < 30 × total human plasma exposure levels (Cmax.tot)) | Assigned DILI category ([9]; Chen et al. 2016 or literature alignment, ref Chen et al. 2016): 1 | In vivo DILI ([9]; ref Aleo 2019): -VE | In vivo DILI ([9]; ref Dawson 2012): -VE | In vivo DILI ([9]; ref Garside 2014): -VE | In vivo DILI ([9]; ref Gustafsson 2014): -VE | In vivo DILI ([9]; ref O'Brien 2006): -VE | In vivo DILI ([9]; ref Tolosa 2012): -VE | In vivo DILI ([9]; ref Tolosa 2019): -VE | Upcytes multi donor assay 14day data (Upcyte human hepatocytes): -VE | Partition Hybrid HRM Score ([10]; In vitro Assay, ref Aleo 2019): -VE | Ro2 Hybrid HRM Score ([10]; In vitro Assay, ref Aleo 2019): -VE | Partition Hybrid HRM Score ≥4, Aleo (2019) [10, 12]: -VE | Partition Hybrid HRM Score ≥8, Aleo (2019) [10, 12]: -VE | Rule of Two hybrid HRM Score ≥3, Aleo (2019) [10, 12]: -VE | Rule of Two hybrid HRM Score ≥8, Aleo (2019) [10, 12]: -VE | DILI prediction hLiMTs (HCS-MEC) (hLiMTs; [11]): -VE | hLiMTs <25x Avg Cmax ATP (hLiMTs; hLiMTs, ATP endpoint, cut-off <25x Avg Cmax): -ve | hLiMTs <100x Avg Cmaxu ATP (hLiMTs; hLiMTs, ATP endpoint, cut-off <100x Avg Cmaxu): -ve | hLiMTs <25x Avg Cmax HCS (hLiMTs; hLiMTs, HCS endpoints, cut-off <25x Avg Cmax): -ve | hLiMTs <100x Avg Cmaxu HCS (hLiMTs; hLiMTs, HCS endpoints, cut-off <100x Avg Cmaxu): -ve | hLiMTs <25x Avg Cmax All (hLiMTs; hLiMTs, all endpoints (ATP and HCS), cut-off <25x Avg Cmax): -ve | hLiMTs Cmax max All (hLiMTs; hLiMTs, all endpoints, Cmax max used): -ve | hLiMTs Cmax min All (hLiMTs; hLiMTs, all endpoints, Cmax min used): -ve | hLiMTs <10 uM All (hLiMTs; hLiMTs, all endpoints, cut-off <10 uM): -ve | hLiMTs <100x Avg Cmaxu All (hLiMTs; hLiMTs, all endpoints, cut-off <100x Avg Cmaxu): -ve
